Here are results for 81 compounds from PMC12040169 (PLOS Biology, 2025).

This data set in a line: in vitro. As to conditions: human, hela cells, % viability.
As usually defined, the viability is a read-out of living cells in per cent, often relative to untreated cells. Turning to `CCC(=O)Nc1ccc(-c2csc(N3CCSCC3)n2)cc1` [CBK306469], the viability at 28.5 h, 10 µM came out at 87%.
For the compound `CC1CCN(S(=O)(=O)c2ccc(S(=O)(=O)Nc3ncnn3C)cc2)CC1` [CBK306470], the viability at 28.5 h, 10 µM amounted to 92.3%.
For the compound `CC(CN(C)C(=O)c1nc(=O)[nH][nH]1)Oc1ccc(Cl)c(Cl)c1` (stereo not drawn) [CBK306471], the viability at 28.5 h, 10 µM came to 87.9%.
In the case of `Cc1c(C(=O)N2CCNC(=O)C2C(C)C)cnn1-c1ccc(Br)cc1` (stereo not drawn) [CBK306472], the viability at 28.5 h, 10 µM was found to be 91.5%.
Under `CCc1nn2c(=O)cc(CN3CCN(C(=O)c4cccs4)CC3)nc2s1` [CBK306474] stands 108%; under `Cc1ccc(C#N)cc1S(=O)(=O)NC(=O)CC1CCOc2ccccc21` (stereo not drawn) [CBK306476], 85.5%.
Consider `CC1(C)CCCCC1CC(=O)NS(=O)(=O)c1cccc(-c2nnco2)c1` (stereo not drawn) [CBK306477], for which the viability at 28.5 h, 10 µM came out at 79.3%.
The figure for `COCCn1c(SC(C)C(=O)OC)nc2ccc(Br)cc2c1=O` (stereo not drawn) [CBK306479] is 88.5%; for `CCCc1nnc(SC(C)C(=O)N2CCCc3ccccc32)[nH]1` (stereo not drawn) [CBK306480] it is 90%; for `CN(CC(=O)O)C(=O)c1ccc(Oc2cccc(Br)c2)nc1` [CBK306485] it is 90.7%.
Take `CCc1c[nH]c(SCC(=O)c2cc(C)n(C3CCS(=O)(=O)C3)c2C)n1` (stereo not drawn) [CBK306486]: the viability at 28.5 h, 10 µM stood at 83.5%.
For the compound `CCC(C)CC(=O)NS(=O)(=O)c1cc(C#N)ccc1C` (stereo not drawn) [CBK306487], the viability at 28.5 h, 10 µM was determined as 88.1%.
As for `COCCn1c(SCc2cn3c(C)cc(C)nc3n2)nc(C)c1C` [CBK306489], the viability at 28.5 h, 10 µM turned out to be 89.3%.
The figure for `CCOC(=O)c1csc(C2CCCN2C(=O)c2cc(SC)ccc2Cl)n1` (stereo not drawn) [CBK306491] is 88%; for `COc1ccccc1CC(=O)NC(CCSC)c1nnc2ccccn12` (stereo not drawn) [CBK306492] it is 92.1%; for `CS(=O)(=O)c1ccc2ncnc(NCC(CO)Cc3ccccn3)c2c1` (stereo not drawn) [CBK306493] it is 88.7%.
Under `CNC(=O)C1CCCN1C(=O)c1nnn(Cc2ccc(F)cc2F)c1C` (stereo not drawn) [CBK306496] stands 93.2%; under `CCc1ncsc1C(=O)NC1CCCN(c2ccn(C)n2)C1=O` (stereo not drawn) [CBK306498], 104%; under `Cc1c(C(=O)N(C)C2CCNCC2)nnn1-c1ccc2ncccc2c1` [CBK306500C], 84.8%.
As for `NCC(NC(=O)c1cnc(-c2ccncc2)s1)C1CCCCC1` (stereo not drawn) [CBK306502C], the viability at 28.5 h, 10 µM came out at 104%.
In the case of `COCCN(Cc1nccs1)C(=O)C1CCc2nn(C)c(=O)n2C1` (stereo not drawn) [CBK306506], the viability at 28.5 h, 10 µM turned out to be 103%.
In the case of `Cn1ncc(N2CCN(C(=O)CCN3CCCCCC3=O)CC2)cc1=O` [CBK306508], the viability at 28.5 h, 10 µM was 109%.
Under `COC(=O)N1CCN(C(=O)c2cc(C(C)C)n3ncnc3n2)CC1` [CBK306509] stands 85.4%; under `Cc1nn(C)c(C)c1CCc1nc(CN2CCN(C)CC2)no1` [CBK306510], 110%; under `CCn1cc(CN(C)Cc2nccs2)c2cc(C(=O)O)ncc21` [CBK306512], 85.3%.
`Cc1cnc2c(Cl)c(C(=O)N3CCN(C)C4(CCNCC4)C3)nn2c1` [CBK306513]: the viability at 28.5 h, 10 µM amounted to 92.9%.
The figure for `Cc1ccc(C(=O)NCc2cccnc2N(C)C2CCCCC2)cn1` [CBK306514] is 116%; for `COc1cc2c(cc1-c1cn(CCN3CCCOC3=O)nn1)CCC2` [CBK306515] it is 107%; for `Cc1cn2cccc(C(=O)N3CCCCC3CCN3CCOCC3)c2n1` (stereo not drawn) [CBK306518] it is 90.3%.
Under `CCC(NC(=O)Nc1cc(N2CCOCC2)ccc1Cl)c1nccs1` (stereo not drawn) [CBK306519] stands 93.2%; under `OC(c1cccs1)C1CCN(Cc2ccc(-n3cncn3)cc2)CC1` (stereo not drawn) [CBK306523], 97.8%.
The figure for `O=c1c2sc(-c3ccc(F)cc3)cc2ncn1CC1(O)CCCNC1` (stereo not drawn) [CBK306525] is 88.4%; for `CCCCC1C(=O)N(C)CCN1C(=O)c1cc(C)c(CC)n(C)c1=O` (stereo not drawn) [CBK306527] it is 91.2%.
Consider `CCn1ncnc1CN(C)Cc1ccc2c(c1)CN(C)C2` [CBK306530], for which the viability at 28.5 h, 10 µM turned out to be 86.1%.
As to `CCN(C(=O)Nc1cccnc1Oc1ccc(F)cc1)C1CCOCC1` [CBK306535], the viability at 28.5 h, 10 µM was found to be 89.5%.
The figure for `Cc1nn(CC(=O)N(C)CCn2ccnc2C)c(=O)c2ccccc12` [CBK306536] is 91.8%; for `CN(C(=O)NC1CCN(Cc2cccc(O)c2)CC1)C1CCS(=O)(=O)C1` (stereo not drawn) [CBK306538] it is 83.5%.
Under `COCCNS(=O)(=O)c1cccc2c1CN(C(=O)c1ccccc1)CC2` [CBK306539] stands 106%; under `Cc1ccc(F)c(OC2(C(=O)O)CCN(Cc3cccc(C)n3)CC2)c1` [CBK306541], 98.8%; under `CC(C)Cn1cncc1CNC(=O)Nc1ccc2[nH]nnc2c1` [CBK306549], 91.9%.
The figure for `Cc1c(C(=O)N2CCn3nc(CO)cc3C2)n(C)c2ccc(F)cc12` [CBK306552] is 97.7%.
Regarding `CCn1nc(CC(C)C)cc1C(=O)NCCc1cn2cccnc2n1` [CBK306553], the viability at 28.5 h, 10 µM was 98.9%.
Under `CN(c1ncccc1CNC(=O)c1cccnc1)C1CCCCC1` [CBK306555] stands 103%; under `Nc1nc(NCCOc2ccccc2F)cc(C2CCOC2)n1` (stereo not drawn) [CBK306559], 78.2%; under `CCC(NC(=O)CCOC)c1cn2cccnc2n1` (stereo not drawn) [CBK306560], 88.2%.
Under `COc1ccc2c(c1)c(C(=O)N1CCC3(CCNCC3)CC1)c(C)n2C` [CBK306562] stands 72.9%; under `CCCn1nccc1C(=O)NC1CCCN(Cc2cccc(OC)c2)C1` (stereo not drawn) [CBK306563], 84.9%; under `COCCn1c(CO)nnc1[C@H]1C[C@@H](NC(=O)c2cc(C)ccc2Cl)C1` [CBK306564], 81.2%.
As to `N#Cc1cccnc1N1CCC(NC(=O)c2ccc3nccn3c2)CC1` [CBK306566], the viability at 28.5 h, 10 µM was 95.1%.
As to `COc1cccc2ncn(C(C)c3nc(C)sc3C)c(=O)c12` (stereo not drawn) [CBK306570], the viability at 28.5 h, 10 µM came to 109%.
With `O=C(N[C@@H]1CCOC[C@H]1Oc1ccc(CO)cc1)c1ccc(F)cc1` [CBK306571], the viability at 28.5 h, 10 µM came out at 112%.
The figure for `CCn1nc(C)cc1C(=O)N1Cc2cnn(Cc3ccc(F)cc3)c2C1` [CBK306574] is 96.7%; for `Cc1nc(N)nc(NCC2CCN(C3CC3)C2)c1Cl` (stereo not drawn) [CBK306575] it is 85.9%; for `COCCN(Cc1cnn(C)c1)C(=O)Cc1ccccn1` [CBK306576] it is 112%.
The figure for `OC[C@H]1CCN(Cc2cc(Cl)ccc2OCCCn2ccnc2)C[C@H]1O` [CBK306581] is 88.4%.
The figure for `O=C(c1ccc(N2CCSCC2)nc1)N1CCC(N2CCOCC2)CC1` [CBK306582] is 78.6%; for `CCOc1ccc(-c2ccnc(N3C[C@@H](C)O[C@@H](C)C3)n2)cc1C(=O)O` [CBK306584] it is 92.5%.
With `CN(Cc1nc(-c2ccccc2)no1)C(=O)C1CC2(CCNCC2)CN1` (stereo not drawn) [CBK306585], the viability at 28.5 h, 10 µM was 88.7%.
`N#Cc1cccnc1N1CCC(NC(=O)c2cc(Cl)c[nH]c2=O)CC1` [CBK306586]: the viability at 28.5 h, 10 µM was determined as 104%.
With `CC(=O)N1CC2(CCN(Cc3nccn3C(C)C)CC2)CC1C(=O)O` (stereo not drawn) [CBK306587], the viability at 28.5 h, 10 µM was determined as 93.7%.
Under `CCC(O)Cn1nc(CCSC)nc1-c1cn(C)c(=O)[nH]c1=O` (stereo not drawn) [CBK306588] stands 83.5%; under `Cc1ccc(C)c(NC(=O)CCNC(=O)c2cnn3cc(C)cnc23)c1` [CBK306590], 87.5%; under `Cc1cccn2c(CN(C)C(C)C(N)=O)c(C(=O)N3CCOCC3)nc12` (stereo not drawn) [CBK306592], 105%.
The figure for `O=C(Cn1cccnc1=O)NC(c1ccc2c(c1)CCO2)C1CC(O)C1` (stereo not drawn) [CBK306595] is 75.3%; for `CCc1nccn1CCC(=O)N1CC(OCc2ccccc2F)C1` [CBK306597] it is 88.5%; for `O=C(CCN1CCn2nc(C(O)C3CC3)cc2C1)NCc1cccs1` (stereo not drawn) [CBK306603] it is 93.1%.
The figure for `CCn1c(C)nnc1SCCNc1cc(C)nc2ccnn12` [CBK306607] is 99.7%; for `CCCn1cc(NC(=O)NCc2cc3c(cc2OC)CCC3)nn1` [CBK306614] it is 86.4%; for `O=C(O)C1(Oc2ccc3ccccc3c2)CCN(C2CCNCC2)CC1` [CBK306615] it is 108%.
On to `O=C(NCC1CCOC1)c1ccc(-c2ccccc2CO)cc1` (stereo not drawn) [CBK306616], for which the viability at 28.5 h, 10 µM came out at 107%.
The figure for `COc1ccnc(NC(c2cnn(C)c2)[C@H]2C[C@@H](O)C2)n1` (stereo partly drawn) [CBK306617] is 97.8%; for `Cc1ccc(OCc2occc2C(=O)N2CCCn3cncc3C2)cc1` [CBK306618] it is 92.7%; for `CCn1ccnc1CN1CCOC(Cc2ccccc2Cl)C1` (stereo not drawn) [CBK306625] it is 94.5%.
With `CCn1nc(C2CCCC2)nc1-c1cnc2ccnn2c1C` [CBK306626], the viability at 28.5 h, 10 µM amounted to 87.1%.
Regarding `O=C(NCCN1CCCCC1)C1CC(=O)N(Cc2ccncc2)C1` (stereo not drawn) [CBK306629], the viability at 28.5 h, 10 µM amounted to 100%.
The figure for `CCN(CCn1cccn1)c1nc2nonc2nc1N(C)C` [CBK306630] is 88.9%; for `Cc1cc(N)n(CC(=O)NCCCn2ccnc2C(C)C)n1` [CBK306632] it is 89.3%; for `CC(=O)c1c(-c2cccc(C(=O)N(C)C3CCN(C)C3)c2)cnn1C` (stereo not drawn) [CBK306633] it is 106%.
With `O=C(NC(c1ccc2c(c1)CCO2)[C@H]1C[C@@H](O)C1)c1c[nH]c(=O)c(Cl)c1` (stereo partly drawn) [CBK306634], the viability at 28.5 h, 10 µM was 95%.
Under `Cn1ccnc1CNC(=O)c1cccc(OCC(=O)N2CCCCC2)c1` [CBK306635] stands 86.8%.
As for `Cc1nc(CCNC(=O)N2CCC(Oc3cccnc3)CC2)sc1Cl` [CBK306636], the viability at 28.5 h, 10 µM turned out to be 93.8%.
